We go through eight compounds from PubChem BioAssay (NCI).

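Following 48 hours of exposure in 96-well plates, responses at five concentrations were used to interpolate endpoints linearly. TGI marks complete inhibition of growth.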 Some results are limits rather than exact numbers.

Test systems include 786-0 renal; CAKI-1 renal; CCRF-CEM leukemia; HCT-116 colon; HCT-15 colon; K-562 leukemia; KM12 colon; MALME-3M melanoma; OVCAR-3 ovarian; OVCAR-4 ovarian; OVCAR-8 ovarian; PC-3 prostate; RPMI-8226 leukemia; RXF 393 renal; SF-539 CNS; SK-MEL-28 melanoma; UACC-257 melanoma; UACC-62 melanoma; DU-145 prostate.
Holding throughout (experiment): NCI-60 cell line screen, 48 h

For the compound `CC(=O)OCCCCn1cnc2nc(Nc3ccccc3)nc(Cl)c21`, the TGI with 786-0 renal was greater than 100 µM; with CAKI-1 renal, 81.4 µM; in the assay with CCRF-CEM leukemia it was greater than 100 µM; in the assay with HCT-116 colon, greater than 100 µM; with HCT-15 colon, greater than 100 µM; in the assay on K-562 leukemia it was greater than 100 µM. Moreover, the TGI in the assay with KM12 colon, in the assay on MALME-3M melanoma, in the assay on OVCAR-3 ovarian, with OVCAR-4 ovarian, in the assay with OVCAR-8 ovarian and in the assay with PC-3 prostate was greater than 100 µM each time. In addition, the TGI in the assay with RPMI-8226 leukemia, with RXF 393 renal, in the assay with SF-539 CNS, in the assay with SK-MEL-28 melanoma, with UACC-257 melanoma and in the assay on UACC-62 melanoma was greater than 100 µM throughout.

`COc1ccc(NC(=O)C(=O)C2CNC(=O)NC2=O)c(OC)c1` (stereo not given): the TGI in the assay on 786-0 renal, in the assay with CAKI-1 renal, in the assay with CCRF-CEM leukemia, in the assay on HCT-116 colon, in the assay on HCT-15 colon and in the assay on K-562 leukemia was greater than 100 µM in each case. In addition, the TGI with KM12 colon, in the assay on MALME-3M melanoma, with OVCAR-3 ovarian, with OVCAR-4 ovarian, in the assay on OVCAR-8 ovarian and in the assay on RPMI-8226 leukemia was greater than 100 µM in each case. Moreover, the TGI in the assay with RXF 393 renal, in the assay on SF-539 CNS, with SK-MEL-28 melanoma, with UACC-257 melanoma and in the assay with UACC-62 melanoma was greater than 100 µM throughout.

With `O=C1c2cccnc2S(=O)N1Cc1ccccc1` (stereo not given), the TGI in the assay with 786-0 renal, with CAKI-1 renal, with CCRF-CEM leukemia, with DU-145 prostate, in the assay with HCT-116 colon and with HCT-15 colon was greater than 100 µM each time. The TGI in the assay with K-562 leukemia, in the assay on KM12 colon, in the assay on MALME-3M melanoma, with OVCAR-4 ovarian, with OVCAR-8 ovarian and in the assay on RPMI-8226 leukemia was greater than 100 µM in each case. For the same compound, the TGI with RXF 393 renal, in the assay with SF-539 CNS, with SK-MEL-28 melanoma, in the assay with UACC-257 melanoma and in the assay on UACC-62 melanoma was greater than 100 µM throughout.

In the case of `Cc1ccc([N+](=O)[O-])cc1NC(=O)C(=O)Cc1occc(=O)c1O`, the TGI in the assay on 786-0 renal, with CAKI-1 renal, with CCRF-CEM leukemia, in the assay on HCT-15 colon, in the assay on K-562 leukemia and with KM12 colon was greater than 100 µM each time. For the same compound, the TGI in the assay with OVCAR-3 ovarian, with OVCAR-8 ovarian, in the assay on RPMI-8226 leukemia, with RXF 393 renal, in the assay on SF-539 CNS and with SK-MEL-28 melanoma was greater than 100 µM each time. Further, in the assay on UACC-62 melanoma, the TGI is greater than 100 µM.

Take `CCOC(=O)C(Cc1ccccc1)NC(=O)c1ccc(N=NN(C)C)cc1` (stereo not given): the TGI in the assay with 786-0 renal, in the assay on CAKI-1 renal, in the assay on CCRF-CEM leukemia, in the assay with HCT-116 colon, in the assay on HCT-15 colon and with K-562 leukemia was greater than 100 µM throughout. Further, the TGI in the assay with KM12 colon, in the assay with MALME-3M melanoma, in the assay on OVCAR-3 ovarian, in the assay with OVCAR-4 ovarian, in the assay on OVCAR-8 ovarian and with RPMI-8226 leukemia was greater than 100 µM throughout. The TGI in the assay on SF-539 CNS, with SK-MEL-28 melanoma, with UACC-257 melanoma and with UACC-62 melanoma was greater than 100 µM in each case.

As for `C=CCNC(=S)N1c2ccccc2NC(=O)CC1C` (stereo not given), the TGI in the assay on 786-0 renal, in the assay on CCRF-CEM leukemia, in the assay with HCT-116 colon, with HCT-15 colon, with K-562 leukemia and in the assay on KM12 colon was greater than 100 µM each time. The TGI with MALME-3M melanoma, in the assay with OVCAR-3 ovarian, in the assay on OVCAR-4 ovarian, in the assay with OVCAR-8 ovarian, with RPMI-8226 leukemia and with RXF 393 renal was greater than 100 µM in each case. For the same compound, the TGI with SF-539 CNS, in the assay on SK-MEL-28 melanoma and in the assay with UACC-62 melanoma was greater than 100 µM throughout.

For the compound `COC(=O)N/N=C(/CCN1CCCC1)CC(c1ccccc1)c1c(O)c2ccccc2oc1=O` (stereo not given), the TGI in the assay on 786-0 renal, in the assay with CAKI-1 renal, with CCRF-CEM leukemia, with HCT-116 colon, in the assay on HCT-15 colon and in the assay with K-562 leukemia was greater than 100 µM throughout. Moreover, the TGI in the assay on KM12 colon, in the assay with MALME-3M melanoma, in the assay on OVCAR-3 ovarian, in the assay on OVCAR-4 ovarian, with OVCAR-8 ovarian and in the assay with RPMI-8226 leukemia was greater than 100 µM each time. In addition, the TGI in the assay with RXF 393 renal, with SF-539 CNS, with SK-MEL-28 melanoma, in the assay with UACC-257 melanoma and in the assay on UACC-62 melanoma was greater than 100 µM each time.

In the case of `COC1C=CC(C(=O)[N+]2=Cc3[nH]c4ccccc4c3CC2)O1` (stereo not given), the TGI with 786-0 renal was greater than 100 µM; with CAKI-1 renal, greater than 100 µM; with CCRF-CEM leukemia it was 76.6 µM; in the assay with HCT-116 colon, greater than 100 µM; in the assay with HCT-15 colon it was greater than 100 µM; in the assay on K-562 leukemia, greater than 100 µM. The TGI with KM12 colon, in the assay on MALME-3M melanoma, with OVCAR-3 ovarian, in the assay on OVCAR-4 ovarian, in the assay on OVCAR-8 ovarian and in the assay on RPMI-8226 leukemia was greater than 100 µM each time. Besides, the TGI in the assay on RXF 393 renal, in the assay on SF-539 CNS, with SK-MEL-28 melanoma, in the assay with UACC-257 melanoma and in the assay with UACC-62 melanoma was greater than 100 µM throughout.
